The values below come from US6136798A, “Compounds inhibiting the association of the PDGF receptor and phosphatidylinositol 3-kinase and their use” (Warner-Lambert Company, priority 1999, dated 2000).

The structures appear in SMILES notation.

Assay [1] addresses T1, PDGF Receptor/PI 3-Kinase association in rat aortic smooth muscle cells (Rattus norvegicus, UniProt Q63787).
T1 construct: endogenous in cells; host or cells: rat aortic smooth muscle cells (RASMC), primary, passages 5 to 20
As to the kind of experiment: PDGF Receptor/PI 3-Kinase Cell Association Assay. The format is cell-based. As to conditions: RASMC, PDGF-BB 30 ng/mL 5 minutes; for inhibition at 25 µM: printed in the Cellular IC50 column, read-out: Inhibition of PDGF Receptor/PI3-Kinase Association (Cellular). As to the method:
Smooth muscle cells were isolated from the thoracic aorta of rats (RASMC) and explanted according to the method of Ross, J. Biol. Chem., 1971;30:172-86. Cells were grown in Dulbecco's modified Eagle's medium (DMEM, Gibco) containing 10% fetal calf serum (FBS, Hyclone, Logan, Utah), 1% glutamine (Gibco) and 1% penicillin/streptomycin (Gibco). Cells were identified as smooth muscle cells by their "hill and valley" growth pattern and by fluorescent staining with a monoclonal antibody specific for SMC […] (Sigma). RASMC were used between passages 5 and 20 for all experiments. Test compounds were prepared in dimethylsulfoxide (DMSO) in order to achieve consistency in the vehicle and to ensure compound solubility. Appropriate DMSO controls were simultaneously evaluated with the test compounds.
Rat aortic smooth muscle cells were grown to confluency in 100 mm dishes. Growth medium was removed and replaced with serum-free medium and cells were incubated at 37° C. for an additional 24 hours. Test compounds were then added directly to the medium and cells incubated for an additional 24 hours. After 24 hours PDGF-BB was added at a final concentration of 30 ng/mL for 5 minutes at 37° C. to stimulated autophosphorylation of the PDGF receptor and association of PI 3-kinase to the phosphorylated receptors. […] Following incubation with ^125 I-protein-A, p85 protein levels were detected by phosphorimage analysis and protein bands quantitated via densitometry. […]

Assay [2] concerns the target T2, PDGF-β receptor tyrosine kinase intracellular domain / p85 SH2 fusion protein (PDGF Receptor/PI3-Kinase Association) (Homo sapiens, UniProt P27986).
T2 construct: The pGEX plasmid expressing the carboxy-terminal SH2 of the p85 subunit of PI3-kinase; made in house; host or cells: p85 SH2-GST: E. coli; PDGF-β receptor intracellular domain: SF9 insect cells, obtained from L. T. Williams (UCSF)
As to the kind of experiment: p85 SH2--PDGF-β Receptor Binding Assay. The settings on record: [35S]p85 C-terminal SH2 fusion protein binding to phosphorylated PDGF-β receptor; 25° C., 20 minutes. The procedure: The pGEX plasmid expressing the carboxy-terminal SH2 of the p85 subunit of PI3-kinase in a glutathione-s-transferase (GST) fusion protein was used in these studies. Expression and purification of the fusion protein was performed as previously described by Zhu, et al., J. Biol. Chem., 1993;268:1175. To prepare [^35 S]p85 fusion proteins, a 125 mL overnight culture of E. coli expressing the p85-GST fusion protein was added to 1000 mL of LB broth containing 100 μg/mL ampicillin. The cultures were incubated at 37° C. until reaching a density of A600 =1.0. 1 mM of isopropyl-β-D-thiogalactoside was added and 15 minutes later, 10 mCi of trans ^35 S-label was added and cultures incubated for an additional 3 hours at 37° C. The cells were then lysed by sonication and fusion proteins purified over glutathione-agarose beads.
Lysates from SF9 insect cells expressing the PDGF-β receptor tyrosine kinase intracellular domain, obtained from L. T. Williams at the University of California at San Francisco, were incubated with M2 affinity beads and the complexes were washed several times with Tris buffer containing protease inhibitors and sodium orthovanadate. Complexes were centrifuged and resuspended in N-[2-hydroxyethyl]piperazine-N'-[2-ethane sulfonic acid] (HEPES) buffer containing 1 mM adenosine triphosphate (ATP), 10 mM MnCl2, and 5 mM MgCl2 to stimulate phosphorylation of the PDGF receptor.
Binding of [^35 S]p85 SH2 fusion proteins to the phosphorylated PDGF-β receptor tyrosine kinase intracellular domain was assayed in Hepes buffer containing ethylene diamine tetraacetic acid (EDTA), NP-40 and […] of each of the protease inhibitors, PMSF, pepstatin, leupeptin, and aprotinin. Binding assays were performed in 96-well millipore filter plates in a final volume of […] of HEPES buffer containing 135 μL phosphorylated PDGF receptor-beads complex (1 μg receptor/well), 10 μL [^35 S]p85 SH2 fusion protein (30,000 cpm/well), and 5 μL of peptide inhibitor as indicated. Samples were incubated at 25° C. for 20 minutes with continuous rocking. Binding was terminated by filtration through the filter plates using a millipore multiscreen filtration manifold Millipore, Bedford, Mass.). Filter plates were washed four times with 0.15 mL Hepes buffer followed by the addition of 40 μL hi-load scintillant and radioactivity retained on the filters was counted in a Wallac 1450 Microbeta counter (Wallac Inc, Gaithersburg, Md.). Total binding was defined as [^35 S]p85 fusion protein bound to the PDGF-β receptor-bead complex retained on the filter plate after washing. Nonspecific binding was defined as radioactivity retained on the filter plates in the presence of excess unlabeled p85 fusion protein. Specific binding was defined as total binding minus nonspecific binding. IC50 values were calculated by weighted nonlinear regression curve fitting.

T1 sequence (Q63787 whole entry): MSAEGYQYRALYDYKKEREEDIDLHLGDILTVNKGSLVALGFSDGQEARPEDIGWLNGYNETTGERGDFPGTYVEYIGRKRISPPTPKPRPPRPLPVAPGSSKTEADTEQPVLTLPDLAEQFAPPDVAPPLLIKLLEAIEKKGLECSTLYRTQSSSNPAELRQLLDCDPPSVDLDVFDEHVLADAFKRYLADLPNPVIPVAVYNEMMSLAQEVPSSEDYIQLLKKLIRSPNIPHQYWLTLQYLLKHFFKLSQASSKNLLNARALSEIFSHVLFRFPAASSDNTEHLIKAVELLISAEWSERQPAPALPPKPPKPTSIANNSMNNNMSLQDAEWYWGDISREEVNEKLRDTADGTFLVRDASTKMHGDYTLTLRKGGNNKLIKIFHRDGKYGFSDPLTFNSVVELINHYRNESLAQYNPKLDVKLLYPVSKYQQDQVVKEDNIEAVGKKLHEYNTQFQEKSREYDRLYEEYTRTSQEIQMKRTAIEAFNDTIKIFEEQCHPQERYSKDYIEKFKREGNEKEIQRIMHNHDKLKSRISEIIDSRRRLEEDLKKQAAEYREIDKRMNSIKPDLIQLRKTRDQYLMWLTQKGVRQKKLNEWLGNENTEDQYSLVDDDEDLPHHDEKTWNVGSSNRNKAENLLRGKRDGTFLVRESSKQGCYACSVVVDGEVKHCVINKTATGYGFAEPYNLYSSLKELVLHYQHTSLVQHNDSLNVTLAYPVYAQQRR
T2 sequence (P27986 624-718 limits assumed): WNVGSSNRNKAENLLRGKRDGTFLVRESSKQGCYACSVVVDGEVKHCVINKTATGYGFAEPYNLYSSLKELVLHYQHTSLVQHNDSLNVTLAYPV

As for `CCCCCN(CCCCC)C(=O)[C@H](C)NC(=O)[C@@H](NC(=O)[C@H](Cc1ccc(C(F)(F)P(=O)(O)O)cc1)NC(C)=O)C(C)C` [Example 2, [1S-[1R*[R*(R*)]]]-[(4-{2-Acetylamino-2-[1-(1-dipentylcarbamoyl-ethylcarbamoyl)-2-methyl-propylcarbamoyl]-ethyl}-phenyl)-difluoro-methyl]-phosphonic acid], the inhibition at 25 µM in assay [1] was 30%. Besides, the IC50 in assay [2] was 290 ± 80 nM.

As for `CCCCCCN(CCCCCC)C(=O)[C@H](C)NC(=O)[C@@H](NC(=O)[C@H](Cc1ccc(OP(=O)(O)O)cc1)NC(C)=O)C(C)C` [Example 4, [1S-[1R*[R*(R*)]]]-Phosphoric acid mono-(4-{2-acetylamino-2-[1-(1-dihexylcarbamoyl-ethylcarbamoyl)-2-methyl-propylcarbamoyl]-ethyl}-phenyl) ester], the inhibition at 25 µM in assay [1] was 27%. Also, the IC50 in assay [2] came to 80 ± 10 nM.

`CCCCCN(CCCCC)C(=O)[C@H](C)NC(=O)[C@@H](NC(=O)[C@H](Cc1ccc(OP(=O)(O)O)cc1)NC(C)=O)C(C)C` [Example 8, [1S-[1R*[R*(R*)]]]-Phosphoric acid mono-(4-{2-acetylamino-2-[1-(1-dipentylcarbamoyl-ethyl-carbamoyl)-2-methyl-propylcarbamoyl]-ethyl}-phenyl) ester] came in with an IC50 in assay [2] of 220 nM.

With `CCCCCCCCN(CCCCCCCC)C(=O)[C@H](C)NC(=O)[C@@H](NC(=O)[C@H](Cc1ccc(C(F)(F)P(=O)(O)O)cc1)NC(C)=O)C(C)C` [Example 3, [1S-[1R*[R*(R*)]]]-[(4-{2-Acetylamino-2-[1-(1-dioctylcarbamoyl-ethylcarbamoyl)-2-methyl-propylcarbamoyl]-ethyl}-phenyl)-difluoro-methyl]-phosphonic acid], in assay [2], the IC50 came out at 12200 ± 900 nM.

On to `CCCCN(CCCC)C(=O)[C@H](C)NC(=O)[C@@H](NC(=O)[C@H](Cc1ccc(OP(=O)(O)O)cc1)NC(C)=O)C(C)C` [Example 6, [1S-[1R*[R*(R*)]]]-Phosphoric acid mono-(4-{2-acetylamino-2-[1-(1-dibutylcarbamoyl-ethyl-carbamoyl)-2-methyl-propylcarbamoyl]-ethyl}-phenyl) ester], for which the IC50 in assay [1] (24 h compound, p85 immunoblot, read-out: Cellular IC50) turned out to be 37.5 µM; in assay [2] it was 1600 ± 320 nM.

As for `CCCCCCN(CCCCCC)C(=O)[C@H](C)NC(=O)[C@@H](NC(=O)[C@H](Cc1ccc(C(F)(F)P(=O)(O)O)cc1)NC(C)=O)C(C)C` [Example 1, [1S-[1R*[R*(R*)]]]-[(4-{2-Acetylamino-2-[1-(1-dihexylcarbamoyl-ethylcarbamoyl)-2-methyl-propylcarbamoyl]-ethyl}-phenyl)-difluoro-methyl]-phosphonic acid], the IC50 in assay [2] turned out to be 450 ± 40 nM.

`CCCCCCCCN(CCCCCCCC)C(=O)[C@H](C)NC(=O)[C@@H](NC(=O)[C@H](Cc1ccc(OP(=O)(O)O)cc1)NC(C)=O)C(C)C` [Example 10, [1S-[1R*[R*(R*)]]]-Phosphoric acid mono-(4-{2-acetylamino-2-[1-(1-dioctylcarbamoyl-ethyl-carbamoyl)-2-methyl-propylcarbamoyl]-ethyl}-phenyl) ester]: the IC50 in assay [2] is 3500 ± 500 nM.
